Test results as given in patent publication US20260167615A1, “COMPOUNDS AND COMPOSITIONS AS GPR52 MODULATORS” (Neurocrine Biosciences, Inc., priority 2022, published 2026).

Assay: Stability in mammalian liver microsomes (Example D)
Type: in vitro ADME
Conditions: human liver microsomes 0.5 mg/mL, 0.5 μM compound, 37° C.; scaled from in vitro half-life (Obach method); linker comparators
Method: Compounds of Formula I were assessed for their stability in mammalian liver microsomes. A compound of Formula I (0.5 μM) was incubated with pooled mixed gender human liver microsomes (HLM) (0.5 mg/mL total protein) at 37° C. in the presence of an NADPH-generating system containing 50 mM, pH 7.4 potassium phosphate buffer, 3 mM magnesium chloride, 1 mM EDTA, 1 mM NADP, 5 mM glusose-6-phosphate, and 1 Unit/mL glucose-6-phosphate dehydrogenase. All concentrations were relative to the final incubation volume of 125 μL. Incubations were conducted at 37° C. for 0, 5, 10, 20, 40 and 60 minutes in a water bath and terminated by rapid mixing with 150 μL of ice-cold acetonitrile containing internal standard, and precipitated proteins were removed by centrifugation prior to LC-MS/MS analysis. Aliquots of the resulting supernatant fractions were analyzed by LC-MS/MS monitoring for depletion of parent compound. The resultant peak area ratio versus time data was fitted to a non-linear regression using XLfit Scientific Curve Fitting Software (IDBS Ltd., Surrey, UK) and half-life was calculated from the slope. Pharmacokinetic parameters were predicted using the method described by Obach et al (J. Pharmcol. Exp. Ther. 1997; 283:46.58). Briefly, values for intrinsic clearance were calculated from the in vitro half-life data and were then scaled to represent the clearance expected in the entire animal (human). Additional values calculated included predicted extraction ratio and predicted maximum bioavailability. For example, the O-linker has better metabolic stability relative to the methyl linker or the —CH2O-linker, as shown by the following comparators

Row | Compound | Metabolic stability - predicted systemic clearance
1 | Cc1cc(-c2cc(Cc3ccc4cnn(C)c4c3)ccn2)ccc1C(N)=O | Metabolic stability - predicted systemic clearance (example D, above) is 11.3 ml/min/kg
2 | Cc1cc(-c2cc(COc3ccc4c(cnn4C)c3)ccn2)ccc1C(N)=O | Metabolic stability - predicted systemic clearance (example D, above) is 12.3 ml/min/kg
3 | Cc1cc(-c2cc(Oc3ccc4cnn(C)c4c3)ccn2)ccc1C(N)=O [drawing 281] | Metabolic stability - predicted systemic clearance (example D, above) is 3.6 ml/min/kg
4 | Cc1cc(-c2cc(Oc3ccc4c(cnn4C)c3)ccn2)ccc1C(N)=O [drawing 283] | Metabolic stability - predicted systemic clearance (example D, above) is 8.0 ml/min/kg
